The first test deals with Mycobacterium tuberculosis. The test is described as follows: Antimycobacterial activity against Mycobacterium tuberculosis H37Rv ATCC 27294 assessed as growth inhibition at 6.25 ug/mL after 4 days by microplate alamar blue assay. The format is functional. The settings on record: H37Rv ATCC 27294, 96 h, read-out: GI.
`CN(C)NC(=S)Nc1ccc(-c2nnc(S)o2)cc1`: the inhibition of growth at 6.25 µg/mL was 9%.

Take `CSc1nnc(-c2ccc(N=C=S)cc2)o1`: the inhibition of growth at 6.25 µg/mL was 37%.

For the molecule `NC(=S)Nc1ccc(-c2nnc(SCC(=O)c3ccccc3)o2)cc1`, the inhibition of growth at 6.25 µg/mL was 61%.

Take `S=C=Nc1ccc(-c2nnc(SCc3ccccc3)o2)cc1`: the inhibition of growth at 6.25 µg/mL came to 20%.

For the molecule `S=C=Nc1ccc(-c2nnc(SCc3ccncc3)o2)cc1`, the inhibition of growth at 6.25 µg/mL is 27%.

As to `CNC(=S)Nc1cccc(-c2nnc(SCC(=O)c3ccc4ccccc4c3)o2)c1`, the inhibition of growth at 6.25 µg/mL was determined as 0%.

`CSc1nnc(-c2ccc(NC(=S)NCCO)cc2)o1`: the inhibition of growth at 6.25 µg/mL was determined as 67%.

As for `NC(=S)Nc1cccc(-c2nnc(SCCc3ccccc3)o2)c1`, the inhibition of growth at 6.25 µg/mL was determined as 16%.

As to `CN(C)C(=S)Nc1cccc(-c2nnc(SCC(=O)c3ccc(Cl)cc3)o2)c1`, the inhibition of growth at 6.25 µg/mL was 18%.

Take `CN(C)NC(=S)Nc1cccc(-c2nnc(S)o2)c1`: the inhibition of growth at 6.25 µg/mL is 5%.

As for `Cc1ccc(NC(S)=Nc2cccc(-c3nnc(S)o3)c2)cc1`, the inhibition of growth at 6.25 µg/mL was 18%.

Turning to `NC(=S)Nc1cccc(-c2nnc(SCC(=O)c3ccc(Br)cc3)o2)c1`, the inhibition of growth at 6.25 µg/mL came out at 6%.

As for `NN=C(S)Nc1cccc(-c2nnc(S)o2)c1`, the inhibition of growth at 6.25 µg/mL was 0%.

On to `CSc1nnc(-c2ccc(NC(=S)N3CCOCC3)cc2)o1`, for which the inhibition of growth at 6.25 µg/mL turned out to be 0%.

Turning to `OCCNC(=S)Nc1ccc(-c2nnc(Sc3ncccn3)o2)cc1`, the inhibition of growth at 6.25 µg/mL is 14%.

On to `O=C(CSc1nnc(-c2cccc(NC(=S)NCCO)c2)o1)c1ccc(Cl)cc1Cl`, for which the inhibition of growth at 6.25 µg/mL was 0%.

Take `S=C=Nc1cccc(-c2cnc(SCCc3ccccc3)o2)c1`: the inhibition of growth at 6.25 µg/mL came to 0%.

For `NC(S)=Nc1cccc(-c2nnc(S)o2)c1`, the inhibition of growth at 6.25 µg/mL was 13%.

Turning to `CSc1nnc(-c2cccc(NC(S)=NN)c2)o1`, the inhibition of growth at 6.25 µg/mL is 0%.

Regarding `CSc1nnc(-c2cccc(NC(=S)N3CCOCC3)c2)o1`, the inhibition of growth at 6.25 µg/mL is 0%.

Consider `CN(C)C(=S)Nc1cccc(-c2nnc(SCC(=O)c3ccc4ccccc4c3)o2)c1`, for which the inhibition of growth at 6.25 µg/mL is 0%.

Regarding `CSc1nnc(-c2cccc(NC(=S)NN(C)C)c2)o1`, the inhibition of growth at 6.25 µg/mL turned out to be 8%.

As to `NC(=S)Nc1cccc(-c2nnc(SCC(=O)c3ccc(Cl)cc3Cl)o2)c1`, the inhibition of growth at 6.25 µg/mL is 0%.

In the case of `O=C(CSc1nnc(-c2ccc(N=C=S)cc2)o1)c1ccc(F)cc1`, the inhibition of growth at 6.25 µg/mL is 12%.

With `CCNC(=S)Nc1ccc(-c2nnc(S)o2)cc1`, the inhibition of growth at 6.25 µg/mL stood at 0%.

Turning to `C=CCNC(=S)Nc1cccc(-c2nnc(S)o2)c1`, the inhibition of growth at 6.25 µg/mL turned out to be 0%.

With `CSc1nnc(-c2cccc(NC(=S)NCCO)c2)o1`, the inhibition of growth at 6.25 µg/mL amounted to 8%.

As for `O=C(CSc1nnc(-c2cccc(NC(=S)NCCO)c2)o1)c1ccc2ccccc2c1`, the inhibition of growth at 6.25 µg/mL was 0%.

Take `C=CCSc1nnc(-c2ccc(N=C=S)cc2)o1`: the inhibition of growth at 6.25 µg/mL came out at 56%.

As to `CNC(=S)Nc1ccc(-c2nnc(S)o2)cc1`, the inhibition of growth at 6.25 µg/mL is 0%.

`O=C(CSc1nnc(-c2cccc(N=C=S)c2)o1)c1ccc(Cl)cc1`: the inhibition of growth at 6.25 µg/mL turned out to be 0%.

Take `O=C(CSc1nnc(-c2cccc(NC(=S)NCCO)c2)o1)c1ccc(F)cc1`: the inhibition of growth at 6.25 µg/mL came out at 0%.

For the molecule `CSc1nnc(-c2ccc(NC(N)=S)cc2)o1`, the inhibition of growth at 6.25 µg/mL was determined as 78%.

Consider `Cc1ccc(C(=O)CSc2nnc(-c3cccc(NC(=S)N(C)C)c3)o2)cc1`, for which the inhibition of growth at 6.25 µg/mL came to 10%.

Take `O=C(CSc1nnc(-c2cccc(N=C=S)c2)o1)c1ccc2ccccc2c1`: the inhibition of growth at 6.25 µg/mL turned out to be 0%.

Turning to `O=C(CSc1nnc(-c2ccc(N=C=S)cc2)o1)c1ccccc1`, the inhibition of growth at 6.25 µg/mL is 22%.

Regarding `S=C=Nc1ccc(-c2nnc(S)o2)cc1`, the inhibition of growth at 6.25 µg/mL is 2%.

In the case of `O=C(CSc1nnc(-c2cccc(N=C=S)c2)o1)c1ccc(Cl)cc1Cl`, the inhibition of growth at 6.25 µg/mL was 0%.

With `C=CCSc1nnc(-c2cccc(N=C=S)c2)o1`, the inhibition of growth at 6.25 µg/mL was 3%.

Turning to `O=C(CSc1nnc(-c2ccc(NC(=S)NCCO)cc2)o1)c1ccc(F)cc1`, the inhibition of growth at 6.25 µg/mL amounted to 90%.

For the molecule `CSc1nnc(-c2cccc(NC(N)=S)c2)o1`, the inhibition of growth at 6.25 µg/mL was 25%.

On to `NC(=S)Nc1cccc(-c2nnc(SCC(=O)c3ccc(Cl)cc3)o2)c1`, for which the inhibition of growth at 6.25 µg/mL was determined as 0%.

Regarding `S=C=Nc1cccc(-c2nnc(SCc3ccccc3)o2)c1`, the inhibition of growth at 6.25 µg/mL was 0%.

Take `NC(=S)Nc1cccc(-c2nnc(SCC(=O)c3ccc(F)cc3)o2)c1`: the inhibition of growth at 6.25 µg/mL came out at 19%.

Regarding `OCCNC(=S)Nc1cccc(-c2nnc(SCCc3ccccc3)o2)c1`, the inhibition of growth at 6.25 µg/mL was 13%.

`C=CCNC(=S)Nc1ccc(-c2nnc(S)o2)cc1`: the inhibition of growth at 6.25 µg/mL was determined as 6%.

Regarding `S=C=Nc1ccc(-c2nnc(Sc3ncccn3)o2)cc1`, the inhibition of growth at 6.25 µg/mL came out at 14%.

For the molecule `CSc1nnc(-c2ccc(NC(=S)NN)cc2)o1`, the inhibition of growth at 6.25 µg/mL was 0%.

With `NC(=S)Nc1ccc(-c2nnc(Sc3ncccn3)o2)cc1`, the inhibition of growth at 6.25 µg/mL stood at 87%.

As for `NC(=S)Nc1cccc(-c2nnc(SCC(=O)c3ccc4ccccc4c3)o2)c1`, the inhibition of growth at 6.25 µg/mL worked out at 16%.

Take `NC(=S)Nc1cccc(-c2nnc(SCC(=O)c3ccccc3)o2)c1`: the inhibition of growth at 6.25 µg/mL was determined as 0%.

As for `O=C(CSc1nnc(-c2cccc(NC(=S)NCCO)c2)o1)c1ccc(Br)cc1`, the inhibition of growth at 6.25 µg/mL amounted to 17%.

In the case of `NNC(=S)Nc1ccc(-c2nnc(S)o2)cc1` [STEMAZOLE], the inhibition of growth at 6.25 µg/mL worked out at 0%.

Take `CC(C)=NNC(=S)Nc1cccc(-c2nnc(S)o2)c1`: the inhibition of growth at 6.25 µg/mL is 16%.

Take `CSc1nnc(-c2ccc(NC(=S)Nc3ccc(C)cc3)cc2)o1`: the inhibition of growth at 6.25 µg/mL turned out to be 17%.

For the molecule `NC(=S)Nc1ccc(-c2nnc(S)o2)cc1`, the inhibition of growth at 6.25 µg/mL is 70%.

Regarding `CSc1nnc(-c2ccc(NC(=S)Nn3cnnc3)cc2)o1`, the inhibition of growth at 6.25 µg/mL turned out to be 58%.

For the molecule `OCCNC(=S)Nc1ccc(-c2nnc(S)o2)cc1`, the inhibition of growth at 6.25 µg/mL worked out at 9%.

In the case of `S=C=Nc1cccc(-c2nnc(S)o2)c1`, the inhibition of growth at 6.25 µg/mL was determined as 9%.

As to `CSc1nnc(-c2cccc(NC(=S)Nc3ccc(C)cc3)c2)o1`, the inhibition of growth at 6.25 µg/mL was 21%.

`O=C(CSc1nnc(-c2ccc(N=C=S)cc2)o1)c1ccc(Cl)cc1Cl`: the inhibition of growth at 6.25 µg/mL is 2%.

Turning to `Cc1ccc(NC(=S)Nc2ccc(-c3nnc(S)o3)cc2)cc1`, the inhibition of growth at 6.25 µg/mL was found to be 5%.

`S=C(Nc1cccc(-c2nnc(S)o2)c1)Nn1cnnc1`: the inhibition of growth at 6.25 µg/mL came out at 13%.

In the case of `S=C(Nc1ccc(-c2nnc(S)o2)cc1)N1CCCCC1`, the inhibition of growth at 6.25 µg/mL is 28%.

With `NC(=S)Nc1cccc(-c2nnc(SCc3ccccc3)o2)c1`, the inhibition of growth at 6.25 µg/mL stood at 0%.

As for `CN(C)C(=S)Nc1cccc(-c2nnc(SCC(=O)c3ccc(Cl)cc3Cl)o2)c1`, the inhibition of growth at 6.25 µg/mL is 1%.

On to `O=C(CSc1nnc(-c2cccc(N=C=S)c2)o1)c1ccc(F)cc1`, for which the inhibition of growth at 6.25 µg/mL was found to be 5%.

`CSc1nnc(-c2cccc(NC(=S)Nn3cnnc3)c2)o1`: the inhibition of growth at 6.25 µg/mL came to 58%.

Regarding `S=C(Nc1cccc(-c2nnc(S)o2)c1)N1CCCCC1`, the inhibition of growth at 6.25 µg/mL came to 13%.

As for `OCCNC(=S)Nc1ccc(-c2nnc(SCc3ccncc3)o2)cc1`, the inhibition of growth at 6.25 µg/mL came to 25%.

Take `O=C(CSc1nnc(-c2cccc(N=C=S)c2)o1)c1ccc(Br)cc1`: the inhibition of growth at 6.25 µg/mL was 0%.

With `CN(C)C(=S)Nc1cccc(-c2nnc(SCC(=O)c3ccccc3)o2)c1`, the inhibition of growth at 6.25 µg/mL is 9%.

In the case of `C/C(=N/NC(=S)Nc1cccc(-c2nnc(S)o2)c1)c1ccccc1`, the inhibition of growth at 6.25 µg/mL is 20%.

With `O=C(CSc1nnc(-c2cccc(NC(=S)NCCO)c2)o1)c1ccccc1`, the inhibition of growth at 6.25 µg/mL came to 12%.

Another test concerns Mycobacterium tuberculosis. The test is described as follows: Antimycobacterial activity against Mycobacterium tuberculosis H37Rv ATCC 27294 assessed as growth inhibition at 12.5 ug/mL after 4 days by microplate alamar blue assay. In kind it is functional. To be noted: H37Rv ATCC 27294, 96 h, read-out: GI.
For the molecule `NC(=S)Nc1ccc(-c2nnc(SCC(=O)c3ccc(Cl)cc3Cl)o2)cc1`, the inhibition of growth at 12.5 µg/mL was 93%.

For `C=CCSc1nnc(-c2ccc(NC(=S)NCCO)cc2)o1`, the inhibition of growth at 12.5 µg/mL was determined as 96%.

With `O=C(CSc1nnc(-c2ccc(NC(=S)NCCO)cc2)o1)c1ccc(Cl)cc1Cl`, the inhibition of growth at 12.5 µg/mL amounted to 98%.

As for `O=C(CSc1nnc(-c2ccc(NC(=S)NCCO)cc2)o1)c1ccccc1`, the inhibition of growth at 12.5 µg/mL was found to be 96%.

For `C=CCSc1nnc(-c2ccc(NC(N)=S)cc2)o1`, the inhibition of growth at 12.5 µg/mL was determined as 98%.

`NC(=S)Nc1ccc(-c2nnc(SCc3ccccc3)o2)cc1`: the inhibition of growth at 12.5 µg/mL is 91%.

On to `NC(=S)Nc1ccc(-c2nnc(SCc3ccncc3)o2)cc1`, for which the inhibition of growth at 12.5 µg/mL was determined as 97%.

Take `OCCNC(=S)Nc1ccc(-c2nnc(SCc3ccccc3)o2)cc1`: the inhibition of growth at 12.5 µg/mL stood at 97%.
